Series [1] can be described thus: Selectivity index, ratio of CC50 for cytotoxicity against African green monkey Vero cells to MIC for antimycobacterial activity against multidrug resistant Mycobacterium tuberculosis 16833. In kind it is toxicity, cell-based. Conditions: read-out: Selectivity Index.
Series [2] concerns Mycobacterium tuberculosis. In words: Antitubercular activity against multidrug resistant Mycobacterium tuberculosis 16833 assessed as bacterial growth inhibition incubated for 7 days in 7H9 medium by alamar blue staining based microplate fluorometric analysis. Conditions: Mycobacterium tuberculosis, 16833, 168 h; time 7 day. The format is functional. (Alamar Blue is a resazurin reagent that responds to reducing activity.)

Series [3] relates to Mycobacterium tuberculosis. Briefly: Antitubercular activity against multidrug resistant Mycobacterium tuberculosis 16995 assessed as bacterial growth inhibition incubated for 7 days in 7H9 medium by alamar blue staining based microplate fluorometric analysis. The format is functional. Conditions: Mycobacterium tuberculosis, 16995, 168 h; time 7 day.

Drawing on ChEMBL document CHEMBL6127042, “Design, synthesis and antimycobacterial activity of novel benzothiazinones with improved water solubility” (Eur J Med Chem, 2024), this text covers selectivity ratio and MIC for 15 compounds.

Usually MIC stands for the least concentration at which growth counts as inhibited.

Each structure is given as a SMILES string. In brackets after ≈: the same amount, converted by molar mass.

As for `O=C(O)CCON=C1CCC(CN2CCN(c3nc(=O)c4cc(C(F)(F)F)cc([N+](=O)[O-])c4s3)CC2)CC1` (stereo not drawn), in series [1], the selectivity ratio was over 542. For the same compound, the figures for the minimum inhibitory concentration (MIC) in series [2] and in series [3] were 0.212 µM (≈ 0.118 µg/mL) and 0.221 µM (≈ 0.123 µg/mL), respectively.
For `O=c1nc(N2CCN(CC3CCCCC3)CC2)sc2c([N+](=O)[O-])cc(C(F)(F)F)cc12` [MACOZINONE] the same measures were over 4010, under 0.035 µM and under 0.035 µM.
For `O=C(O)CON=C1CCC(CN2CCN(c3nc(=O)c4cc(C(F)(F)F)cc([N+](=O)[O-])c4s3)CC2)CC1` (stereo not drawn) the same measures were over 2070, 0.057 µM (≈ 0.031 µg/mL) and 0.057 µM (≈ 0.031 µg/mL).
In the case of `NNC(=O)c1ccncc1` [ISONIAZID], the MIC in series [2] and in series [3] was over 72.9 µM in each case.
As for `C[C@H](NC(=O)C(C)(C)ON=C1CCC(CN2CCN(c3nc(=O)c4cc(C(F)(F)F)cc([N+](=O)[O-])c4s3)CC2)CC1)C(=O)OC(C)(C)C` (stereo partly drawn), in series [1], the selectivity ratio is over 3980. Moreover, the figures for the MIC in series [2] and in series [3] were under 0.023 µM and 0.03 µM (≈ 0.021 µg/mL), respectively.
For `O=C(O)CNC(=O)CCON=C1CCC(CN2CCN(c3nc(=O)c4cc(C(F)(F)F)cc([N+](=O)[O-])c4s3)CC2)CC1` (stereo not drawn) the same measures were over 496, 0.21 µM (≈ 0.129 µg/mL) and 0.425 µM (≈ 0.261 µg/mL).
As to `CC(C)(C)OC(=O)CNC(=O)C(C)(C)ON=C1CCC(CN2CCN(c3nc(=O)c4cc(C(F)(F)F)cc([N+](=O)[O-])c4s3)CC2)CC1` (stereo not drawn), the selectivity ratio in series [1] is over 1400. Besides, the minimal inhibitory concentration (MIC) in series [2] came out at 0.067 µM (≈ 0.0459 µg/mL); in series [3], 0.066 µM (≈ 0.0452 µg/mL).
Consider `CC(C)(C)OC(=O)CNC(=O)CCON=C1CCC(CN2CCN(c3nc(=O)c4cc(C(F)(F)F)cc([N+](=O)[O-])c4s3)CC2)CC1` (stereo not drawn), for which the selectivity ratio in series [1] was over 1990. Besides, the MIC in series [2] stood at 0.048 µM (≈ 0.0322 µg/mL); in series [3], 0.093 µM (≈ 0.0624 µg/mL).
Turning to `CC(C)(ON=C1CCC(CN2CCN(c3nc(=O)c4cc(C(F)(F)F)cc([N+](=O)[O-])c4s3)CC2)CC1)C(=O)O` (stereo not drawn), in series [1], the selectivity ratio was over 299. For the same compound, the minimal inhibitory concentration (MIC) in series [2] is 0.375 µM (≈ 0.214 µg/mL); in series [3] it was 0.109 µM (≈ 0.0623 µg/mL).
For the compound `CO[C@H]1/C=C/O[C@@]2(C)Oc3c(C)c(O)c4c(O)c(c(/C=N/N5CCN(C)CC5)c(O)c4c3C2=O)NC(=O)/C(C)=C\C=C\[C@H](C)[C@H](O)[C@@H](C)[C@@H](O)[C@@H](C)[C@H](OC(C)=O)[C@@H]1C` [RIFAMPIN], the minimum inhibitory concentration (MIC) in series [2] and in series [3] was over 12.2 µM throughout.
Take `C[C@H](NC(=O)CON=C1CCC(CN2CCN(c3nc(=O)c4cc(C(F)(F)F)cc([N+](=O)[O-])c4s3)CC2)CC1)C(=O)OC(C)(C)C` (stereo partly drawn): the selectivity ratio in series [1] was over 682. Moreover, the MIC in series [2] was 0.14 µM (≈ 0.0939 µg/mL); in series [3], 0.167 µM (≈ 0.112 µg/mL).
Regarding `CC(C)(C)OC(=O)CCON=C1CCC(CN2CCN(c3nc(=O)c4cc(C(F)(F)F)cc([N+](=O)[O-])c4s3)CC2)CC1` (stereo not drawn), the selectivity ratio in series [1] is over 3370. The MIC came to 0.031 µM (≈ 0.019 µg/mL) in series [2] and 0.068 µM (≈ 0.0417 µg/mL) in series [3].
Taken in the same sequence, the figures for `CC(C)(C)OC(=O)CNC(=O)CON=C1CCC(CN2CCN(c3nc(=O)c4cc(C(F)(F)F)cc([N+](=O)[O-])c4s3)CC2)CC1` (stereo not drawn) were over 408, 0.239 µM (≈ 0.157 µg/mL) and 0.03 µM (≈ 0.0197 µg/mL).
Regarding `O=C(O)CNC1CCC(CN2CCN(c3nc(=O)c4cc(C(F)(F)F)cc([N+](=O)[O-])c4s3)CC2)CC1` (stereo not drawn), in series [1], the selectivity ratio is over 1390. Besides, the MIC in series [2] stood at 0.087 µM (≈ 0.0461 µg/mL); in series [3] it was 0.095 µM (≈ 0.0503 µg/mL).
Regarding `CC(C)(C)OC(=O)NCCON=C1CCC(CN2CCN(c3nc(=O)c4cc(C(F)(F)F)cc([N+](=O)[O-])c4s3)CC2)CC1` (stereo not drawn), the selectivity ratio in series [1] is over 4080. Also, the results for the minimum inhibitory concentration (MIC) in series [2] and in series [3] were under 0.025 µM and 0.041 µM (≈ 0.0258 µg/mL), respectively.
